From patent publication US20120149081A1, “METHOD FOR FERMENTATION CULTURE IN MEDIUM CONTAINING XYLOSE” (priority 2010, published 2012)

How the values were obtained:
[1] = test system: recombinant yeast W801M strain; assay: Simultaneous (glucose/xylose) fermentation test in medium supplemented with amino acid, primary screening; format: cell-based, Saccharomyces cerevisiae; details: hour 8 after start, amino acid amount per Table 3; for ΔXylose 0-8 h (decreased amount of xylose): YNGXAc+U medium (10 g/l xylose, 10 g/l glucose), 30° C., initial OD600=10, n=2; for Control ratio % (ΔXylose 0-8 h relative to no-addition control): YNGXAc+U medium, n=2
Procedure: (§1) The W801M strain prepared as described above was cultured in 5 ml of an YNG+U (6.7 g/l Yeast Nitrogen Base without amino acids, 20 g/l glucose, 20 mg/l uracil) liquid medium prepared in a test tube at 30° C. and 80 rpm for 24 hours, thereby preparing a pre-pre-culture solution. Next, the pre-pre-culture solution (5 ml) was added to new YNX+U liquid medium (250 ml) prepared in a baffled Erlenmeyer flask, followed by pre-culture at 30° C. and 100 rpm. After 48 hours of culture, the culture solution was subjected to 5 minutes of centrifugation at 1000×g at room temperature, thereby removing the supernatant.
(§2) To prevent the introduction of the substrate into the pre-culture solution, the thus collected microbial pellet was suspended in sterile water and then subjected to centrifugation at 1000×g for 5 minutes, thereby collecting microorganisms. Washing was performed twice. After washing, microorganisms were suspended in sterile water, so that a microbial solution was prepared. A sodium acetate buffer was added to the fermentation medium so as to suppress a pH decrease in the medium associated with fermentation. The microbial solution was added to an YNGXAc+U medium (6.7 g/l Yeast Nitrogen Base without amino acids, 10 g/l D-Xylose, 10 g/l Glucose, 25 mM sodium acetate, 20 mg/l uracil, pH 5.0) so that the initial microbial concentration was OD600=10. One type of amino acid was added to the YNGXAc+U medium to result in a predetermined concentration, and then the medium was used. Amino acid was dissolved in water to a concentration 10 times greater than the final concentration. Then the solution was adjusted to pH 5.0, diluted, and then used. The fermentation test was conducted as follows. Five (5) ml of the culture solution was added to a 15-ml plastic tube with a screw cap, the tube was sealed with the cap, and then the tube was shaken at 30° C. (100 rpm). Sampling from the culture solution was performed over time and thus substrates (xylose and glucose) and the product (ethanol) were analyzed via liquid chromatography. Liquid chromatography was performed using a Shim-pack SPR-Pb column (Shimadzu Corporation) at 80° C. An RID-10A refractive index detector (Shimadzu Corporation) was used. Water was used for a mobile phase and sent at a flow rate of 0.8 ml/min.
A fermentation test was conducted (n=2) using as a control an YNGXAc+U medium to which nothing had been added, an YNGXAc+U medium supplemented with casamino acid (CAA, 20 g/L) (that is, an amino acid mixture obtained via hydrolysis of casein) and YNGXAc+U medium supplemented with 18 types of amino acids considered to be contained in casamino acid (20 g/L) or 2 types of amino acid (glutamine and asparagine) (5 g/L) considered not to be contained in casamino acid. The results of the measurement of the decreased amounts of xylose at hour 8 after the start of the fermentation test are shown in Table 3.

[2] = test system: recombinant yeast W801M strain; assay: Simultaneous (glucose/xylose) fermentation test in medium supplemented with amino acid, secondary test; format: cell-based, Saccharomyces cerevisiae; details: n=4
Procedure: as §1, §2
In addition, 8 hours later, glucose had been completely consumed and thus was not detected in any samples.
Also, 2 hours later, glucose remained in all samples.
Also, 22 hours later, both glucose and xylose had been completely consumed and thus was not detected. It was understood from the results that the microbial concentrations had increased from the initial microbial concentration of OD600=10 to around OD600=15 at hour 22. However, the microbial concentrations at hour 22 when the amino acids were added were equivalent to or lower than that of the control.

SMILES | ΔXylose 0-8 h (decreased amount of xylose) [1] | Control ratio % (ΔXylose 0-8 h relative to no-addition control) [1] | xylose consumption rate compared with the control (decreased amount of xylose at hour 8, FIG. 7) ([2]; amino acid added at 0.3 g/L) | xylose consumption rate compared with the control (decreased amount of xylose at hour 8, FIG. 7) ([2]; amino acid added at 1 g/L)
C[C@H](N)C(=O)O [Ala, alanine] | 2.95 g/L | 111% |  | 
N=C(N)NCCC[C@H](N)C(=O)O [Arg, arginine] | 2.91 g/L | 109% |  | 
NC(=O)C[C@H](N)C(=O)O [Asn, asparagine] | 3.60 g/L | 135% | Significant effects of improvement | Significant effects of improvement
N[C@@H](CC(=O)O)C(=O)O [Asp, aspartic acid] | 2.46 g/L | 92% |  | 
N[C@@H](CS)C(=O)O [Cys] | 2.81 g/L | 106% |  | 
NC(=O)CC[C@H](N)C(=O)O [Gln, glutamine] | 3.05 g/L | 115% |  | 
N[C@@H](CCC(=O)O)C(=O)O [Glu, glutamic acid] | 2.25 g/L | 85% |  | 
NCC(=O)O [Gly] | 3.03 g/L | 114% |  | 
N[C@@H](Cc1c[nH]cn1)C(=O)O [His, histidine] | 3.26 g/L | 122% | Significant effects of improvement | 
CC[C@H](C)[C@H](N)C(=O)O [Ile] | 2.09 g/L | 79% |  | 
CC(C)C[C@H](N)C(=O)O [Leu, leucine] | 1.12 g/L | 42% |  | 
NCCCC[C@H](N)C(=O)O [Lys] | 3.08 g/L | 116% |  | 
CSCC[C@H](N)C(=O)O [Met] | 2.67 g/L | 100% |  | 
N[C@@H](Cc1ccccc1)C(=O)O [Phe] | 2.79 g/L | 105% |  | 
O=C(O)[C@@H]1CCCN1 [Pro] | 2.97 g/L | 112% |  | 
N[C@@H](CO)C(=O)O [Ser, serine] | 3.42 g/L | 128% | Significant effects of improvement | Significant effects of improvement
C[C@@H](O)[C@H](N)C(=O)O [Thr, threonine] | 3.29 g/L | 124% | Significant effects of improvement | Significant effects of improvement
N[C@@H](Cc1c[nH]c2ccccc12)C(=O)O [Trp] | 3.07 g/L | 115% |  | 
N[C@@H](Cc1ccc(O)cc1)C(=O)O [Tyr, tyrosine] | 3.62 g/L | 136% |  | Significant effects of improvement
CC(C)[C@H](N)C(=O)O [Val, valine] | 2.67 g/L | 100% |  | 
